Experimental data: article PMC8900464 (Journal of medicinal chemistry, 2022)

Experiments:
[1] = test system: total AKT (T-AKT); test: Immunoblotting of total AKT in BT474 cells; type: cell-based; settings: 24 h, western blot; for AKT (T-AKT) degradation: BT474 cells, 1, 5 and 10 μM; for AKT degradation: BT474 cells
[2] = test system: P-AKT (S473), P-PRAS40 (T246), P-S6 (S240/244); test: Immunoblotting of P-AKT and downstream signaling in BT474 cells; type: cell-based; settings: 24 h
[3] = BT474 cells, 1, 5 and 10 μM, P-PRAS40 and P-S6, western blot
[4] = BT474 cells, 5 μM, western blot

SMILES | AKT (T-AKT) degradation [1] | other results
Cc1ncsc1-c1ccc(CNC(=O)[C@@H]2C[C@@H](O)CN2C(=O)[C@@H](NC(=O)COCC(=O)N2CCN(CC[C@H](NC(=O)C3(N)CCN(c4ncnc5[nH]ccc45)CC3)c3ccc(Cl)cc3)CC2)C(C)(C)C)cc1 [Compound 3, 4-Amino-N-((S)-1-(4-chlorophenyl)-3-(4-(2-(2-(((S)-1-((2S,4R)-4-hydroxy-2-((4-(4-methylthiazol-5-yl)benzyl)carbamoyl)pyrrolidin-1-yl)-3,3-dimethyl-1-oxobutan-2-yl)amino)-2-oxoethoxy)acetyl)-piperazin-1-yl)propyl)-1-(7H-pyrrolo[2,3-d]pyrimidin-4-yl)-piperidine-4-carboxamide] | most significant T-AKT degradation | downstream signaling inhibition [2, 3]: most effective inhibition of the downstream signaling
Cc1ncsc1-c1ccc(CNC(=O)[C@@H]2C[C@@H](O)CN2C(=O)[C@@H](NC(=O)CCOCCC(=O)N2CCN(CC[C@H](NC(=O)C3(N)CCN(c4ncnc5[nH]ccc45)CC3)c3ccc(Cl)cc3)CC2)C(C)(C)C)cc1 [Compound 4, 4-Amino-N-((S)-1-(4-chlorophenyl)-3-(4-(3-(3-(((S)-1-((2S,4R)-4-hydroxy-2-((4-(4-methylthiazol-5-yl)benzyl)carbamoyl)pyrrolidin-1-yl)-3,3-dimethyl-1-oxobutan-2-yl)amino)-3-oxopropoxy)-propanoyl)piperazin-1-yl)propyl)-1-(7H-pyrrolo[2,3-d]pyrimidin-4-yl)piperidine-4-carboxamide] | decreased the AKT degradation effectiveness | 
Cc1ncsc1-c1ccc(CNC(=O)[C@@H]2C[C@@H](O)CN2C(=O)[C@@H](NC(=O)CCC(=O)N2CCN(CC[C@H](NC(=O)C3(N)CCN(c4ncnc5[nH]ccc45)CC3)c3ccc(Cl)cc3)CC2)C(C)(C)C)cc1 [Compound 12, 4-Amino-N-((S)-1-(4-chlorophenyl)-3-(4-(4-(((S)-1-((2S,4R)-4-hydroxy-2-((4-(4-methylthiazol-5-yl)benzyl)carbamoyl)pyrrolidin-1-yl)-3,3-dimethyl-1-oxobutan-2-yl)amino)-4-oxobutanoyl)-piperazin-1-yl)propyl)-1-(7H-pyrrolo[2,3-d]pyrimidin-4-yl)-piperidine-4-carboxamide] | inactive at reducing the T-AKT protein level | 
Cc1ncsc1-c1ccc(CNC(=O)[C@@H]2C[C@@H](O)CN2C(=O)[C@@H](NC(=O)CCCC(=O)N2CCN(CC[C@H](NC(=O)C3(N)CCN(c4ncnc5[nH]ccc45)CC3)c3ccc(Cl)cc3)CC2)C(C)(C)C)cc1 [Compound 13, 4-Amino-N-((S)-1-(4-chlorophenyl)-3-(4-(5-(((S)-1-((2S,4R)-4-hydroxy-2-((4-(4-methylthiazol-5-yl)benzyl)carbamoyl)pyrrolidin-1-yl)-3,3-dimethyl-1-oxobutan-2-yl)amino)-5-oxopentanoyl)-piperazin-1-yl)propyl)-1-(7H-pyrrolo[2,3-d]pyrimidin-4-yl)-piperidine-4-carboxamide] | inactive at reducing the T-AKT protein level | 
Cc1ncsc1-c1ccc(CNC(=O)[C@@H]2C[C@@H](O)CN2C(=O)[C@@H](NC(=O)CCCCC(=O)N2CCN(CC[C@H](NC(=O)C3(N)CCN(c4ncnc5[nH]ccc45)CC3)c3ccc(Cl)cc3)CC2)C(C)(C)C)cc1 [Compound 14, 4-Amino-N-((S)-1-(4-chlorophenyl)-3-(4-(6-(((S)-1-((2S,4R)-4-hydroxy-2-((4-(4-methylthiazol-5-yl)benzyl)carbamoyl)pyrrolidin-1-yl)-3,3-dimethyl-1-oxobutan-2-yl)amino)-6-oxohexanoyl)-piperazin-1-yl)propyl)-1-(7H-pyrrolo[2,3-d]pyrimidin-4-yl)-piperidine-4-carboxamide] |  | AKT degradation ([1]; 5 μM): improved AKT degradation; downstream signaling inhibition [2, 4]: significant downstream signaling inhibition
Cc1ncsc1-c1ccc(CNC(=O)[C@@H]2C[C@@H](O)CN2C(=O)[C@@H](NC(=O)CCCCCC(=O)N2CCN(CC[C@H](NC(=O)C3(N)CCN(c4ncnc5[nH]ccc45)CC3)c3ccc(Cl)cc3)CC2)C(C)(C)C)cc1 [Compound 15, 4-Amino-N-((S)-1-(4-chlorophenyl)-3-(4-(7-(((S)-1-((2S,4R)-4-hydroxy-2-((4-(4-methylthiazol-5-yl)benzyl)carbamoyl)pyrrolidin-1-yl)-3,3-dimethyl-1-oxobutan-2-yl)amino)-7-oxoheptanoyl)-piperazin-1-yl)propyl)-1-(7H-pyrrolo[2,3-d]pyrimidin-4-yl)-piperidine-4-carboxamide] |  | AKT degradation ([1]; 5 μM): improved AKT degradation; downstream signaling inhibition [2, 4]: significant downstream signaling inhibition
Cc1ncsc1-c1ccc(CNC(=O)[C@@H]2C[C@@H](O)CN2C(=O)[C@@H](NC(=O)CCCCCCCCCC(=O)N2CCN(CC[C@H](NC(=O)C3(N)CCN(c4ncnc5[nH]ccc45)CC3)c3ccc(Cl)cc3)CC2)C(C)(C)C)cc1 [Compound 19, 4-Amino-N-((S)-1-(4-chlorophenyl)-3-(4-(11-(((S)-1-((2S,4R)-4-hydroxy-2-((4-(4-methylthiazol-5-yl)benzyl)carbamoyl)pyrrolidin-1-yl)-3,3-dimethyl-1-oxobutan-2-yl)amino)-11-oxoundecanoyl)-piperazin-1-yl)propyl)-1-(7H-pyrrolo[2,3-d]pyrimidin-4-yl)-piperidine-4-carboxamide] | most profound AKT degradation | downstream signaling inhibition [2, 3]: most profound AKT degradation and downstream signaling inhibition
NC1(C(=O)N[C@@H](CCN2CCN(C(=O)CNc3cccc4c3C(=O)N(C3CCC(=O)NC3=O)C4=O)CC2)c2ccc(Cl)cc2)CCN(c2ncnc3[nH]ccc23)CC1 (stereo partly drawn) [Compound 24, 4-Amino-N-((1S)-1-(4-chlorophenyl)-3-(4-((2-(2,6-dioxopiperidin-3-yl)-1,3-dioxoisoindolin-4-yl)glycyl)piperazin-1-yl)propyl)-1-(7H-pyrrolo[2,3-d]pyrimidin-4-yl)piperidine-4-carboxamide] | negligible AKT degradation | 
NC1(C(=O)N[C@@H](CCN2CCN(C(=O)CCNc3cccc4c3C(=O)N(C3CCC(=O)NC3=O)C4=O)CC2)c2ccc(Cl)cc2)CCN(c2ncnc3[nH]ccc23)CC1 (stereo partly drawn) [Compound 25, 4-Amino-N-((1S)-1-(4-chlorophenyl)-3-(4-(3-((2-(2,6-dioxopiperidin-3-yl)-1,3-dioxoisoindolin-4-yl)amino)propanoyl)piperazin-1-yl)propyl)-1-(7H-pyrrolo[2,3-d]pyrimidin-4-yl)piperidine-4-carboxamide] | negligible AKT degradation | 
NC1(C(=O)N[C@@H](CCN2CCN(C(=O)CCCNc3cccc4c3C(=O)N(C3CCC(=O)NC3=O)C4=O)CC2)c2ccc(Cl)cc2)CCN(c2ncnc3[nH]ccc23)CC1 (stereo partly drawn) [Compound 26, 4-Amino-N-((1S)-1-(4-chlorophenyl)-3-(4-(4-((2-(2,6-dioxopiperidin-3-yl)-1,3-dioxoisoindolin-4-yl)amino)butanoyl)piperazin-1-yl)-propyl)-1-(7H-pyrrolo[2,3-d]pyrimidin-4-yl)piperidine-4-carboxamide] | moderate effectiveness | downstream signaling inhibition [2, 3]: moderate effectiveness
NC1(C(=O)N[C@@H](CCN2CCN(C(=O)CCCCNc3cccc4c3C(=O)N(C3CCC(=O)NC3=O)C4=O)CC2)c2ccc(Cl)cc2)CCN(c2ncnc3[nH]ccc23)CC1 (stereo partly drawn) [Compound 27, 4-Amino-N-((1S)-1-(4-chlorophenyl)-3-(4-(5-((2-(2,6-dioxopiperidin-3-yl)-1,3-dioxoisoindolin-4-yl)amino)pentanoyl)piperazin-1-yl)propyl)-1-(7H-pyrrolo[2,3-d]pyrimidin-4-yl)piperidine-4-carboxamide] | moderate effectiveness | downstream signaling inhibition [2, 3]: moderate effectiveness
NC1(C(=O)N[C@@H](CCN2CCN(C(=O)CCCCCCNc3cccc4c3C(=O)N(C3CCC(=O)NC3=O)C4=O)CC2)c2ccc(Cl)cc2)CCN(c2ncnc3[nH]ccc23)CC1 (stereo partly drawn) [Compound 29, 4-Amino-N-((1S)-1-(4-chlorophenyl)-3-(4-(7-((2-(2,6-dioxopiperidin-3-yl)-1,3-dioxoisoindolin-4-yl)amino)heptanoyl)piperazin-1-yl)propyl)-1-(7H-pyrrolo[2,3-d]pyrimidin-4-yl)piperidine-4-carboxamide] | negligible AKT degradation | 
NC1(C(=O)N[C@@H](CCN2CCN(C(=O)CCCCCCCNc3cccc4c3C(=O)N(C3CCC(=O)NC3=O)C4=O)CC2)c2ccc(Cl)cc2)CCN(c2ncnc3[nH]ccc23)CC1 (stereo partly drawn) [Compound 30, 4-Amino-N-((1S)-1-(4-chlorophenyl)-3-(4-(8-((2-(2,6-dioxopiperidin-3-yl)-1,3-dioxoisoindolin-4-yl)amino)octanoyl)piperazin-1-yl)-propyl)-1-(7H-pyrrolo[2,3-d]pyrimidin-4-yl)piperidine-4-carboxamide] | negligible AKT degradation | 
NC1(C(=O)N[C@@H](CCN2CCN(C(=O)CCOCCNc3cccc4c3C(=O)N(C3CCC(=O)NC3=O)C4=O)CC2)c2ccc(Cl)cc2)CCN(c2ncnc3[nH]ccc23)CC1 (stereo partly drawn) [Compound 31, 4-Amino-N-((1S)-1-(4-chlorophenyl)-3-(4-(3-(2-((2-(2,6-dioxopiperidin-3-yl)-1,3-dioxoisoindolin-4-yl)amino)ethoxy)propanoyl)-piperazin-1-yl)propyl)-1-(7H-pyrrolo[2,3-d]pyrimidin-4-yl)-piperidine-4-carboxamide] |  | AKT degradation ([1]; 10 μM): only moderate AKT degradation
NC1(C(=O)N[C@@H](CCN2CCN(C(=O)CCOCCOCCOCCOCCOCCNc3cccc4c3CN(C3CCC(=O)NC3=O)C4=O)CC2)c2ccc(Cl)cc2)CCN(c2ncnc3[nH]ccc23)CC1 (stereo partly drawn) [Compound 39, 4-Amino-N-((1S)-1-(4-chlorophenyl)-3-(4-(1-((2-(2,6-dioxopiperidin-3-yl)-1-oxoisoindolin-4-yl)amino)-3,6,9,12,15-pentaoxaoctadecan-18-oyl)piperazin-1-yl)propyl)-1-(7H-pyrrolo[2,3-d]pyrimidin-4-yl)piperidine-4-carboxamide] | significantly decreased effectiveness in AKT degradation | 
